Read-outs that look alike come from different tables or passages of the source.
Tests used:
Assay type in all cases: biochemical
CDC42 BPA (MRCKA) = CDC42 BPA (MRCKA) (Homo sapiens (Human), UniProt Q5VT25); test: IB35 kinases profiling at 100 nM (ZLYTE); settings: IB35 100 nM, ATP Km app
Source text: (§1) The results are reported below

CDK5/p35 = CDK5/p35 (Homo sapiens (Human), UniProt Q00535); test: IB35 kinases profiling at 100 nM (ZLYTE); settings: IB35 100 nM, ATP Km app
Source text: as §1

SRC = SRC (Homo sapiens (Human), UniProt P12931); test: IB35 kinases profiling at 100 nM (ZLYTE); settings: IB35 100 nM, ATP Km app
Source text: as §1

CAMK2A (CaMKII alpha) = CAMK2A (CaMKII alpha) (Homo sapiens (Human), UniProt Q9UQM7); test: IB35 kinases profiling at 100 nM (ZLYTE); settings: IB35 100 nM, ATP Km app
Source text: as §1

GRK5 = GRK5 (Homo sapiens (Human), UniProt P34947); test: IB35 kinases profiling at 100 nM (ZLYTE); settings: IB35 100 nM, ATP Km app
Source text: as §1

[1] = molecular target: MAPK14 (p38 alpha) Direct (Homo sapiens (Human), UniProt Q16539); test: IB35 kinases profiling at 100 nM (ZLYTE); settings: IB35 100 nM, ATP Km app
Source text: as §1

MAPK9 (JNK2) = MAPK9 (JNK2) (Homo sapiens (Human), UniProt P45984); test: IB35 kinases profiling at 100 nM (ZLYTE); settings: IB35 100 nM, ATP 100
Source text: as §1

RAF1 (cRAF) Y340D Y341D = RAF1 (cRAF) Y340D Y341D (Homo sapiens (Human), UniProt P04049, Y340D/Y341D); test: IB35 kinases profiling at 100 nM (ZLYTE); settings: IB35 100 nM, ATP 100
Source text: as §1

CHEK2 (CHK2) = CHEK2 (CHK2) (Homo sapiens (Human), UniProt O96017); test: IB35 kinases profiling at 100 nM (ZLYTE); settings: IB35 100 nM, ATP Km app
Source text: as §1

ROCK1 = ROCK1 (Homo sapiens (Human), UniProt Q13464); test: IB35 kinases profiling at 100 nM (ZLYTE); settings: IB35 100 nM, ATP Km app
Source text: as §1

PRKCD (PKC delta) = PRKCD (PKC delta) (Homo sapiens (Human), UniProt Q05655); test: IB35 kinases profiling at 100 nM (ZLYTE); settings: IB35 100 nM, ATP Km app
Source text: as §1

MAPK8 (JNK1) = MAPK8 (JNK1) (Homo sapiens (Human), UniProt P45983); test: IB35 kinases profiling at 100 nM (ZLYTE); settings: IB35 100 nM, ATP 100
Source text: as §1

PAK6 = PAK6 (Homo sapiens (Human), UniProt Q9NQU5); test: IB35 kinases profiling at 100 nM (ZLYTE); settings: IB35 100 nM, ATP Km app
Source text: as §1

AKT1 (PKB alpha) = AKT1 (PKB alpha) (Homo sapiens (Human), UniProt P31749); test: IB35 kinases profiling at 100 nM (ZLYTE); settings: IB35 100 nM, ATP Km app
Source text: as §1

IRAK4 = IRAK4 (Homo sapiens (Human), UniProt Q9NWZ3); test: IB35 kinases profiling at 100 nM (ZLYTE); settings: IB35 100 nM, ATP Km app
Source text: as §1

CDK7/cyclin H/MNAT1 = CDK7/cyclin H/MNAT1 (Homo sapiens (Human), UniProt P50613); test: IB35 kinases profiling at 100 nM (Adapta); settings: IB35 100 nM, ATP Km app
Source text: as §1

PIK3CG (p110 gamma) = PIK3CG (p110 gamma) (Homo sapiens (Human), UniProt P48736); test: IB35 kinases profiling at 100 nM (Adapta); settings: IB35 100 nM, ATP Km app
Source text: as §1

[2] = molecular target: PIK3CA/PIK3R1 (p110 alpha/p85 alpha) (Homo sapiens (Human), UniProt P42336); test: IB35 kinases profiling at 100 nM (Adapta); settings: IB35 100 nM, ATP Km app
Source text: as §1

PI4KB (PI4K beta) = PI4KB (PI4K beta) (Homo sapiens (Human), UniProt Q9UBF8); test: IB35 kinases profiling at 100 nM (Adapta); settings: IB35 100 nM, ATP Km app
Source text: as §1

CHUK (IKK alpha) = CHUK (IKK alpha) (Homo sapiens (Human), UniProt O15111); test: IB35 kinases profiling at 100 nM (Adapta); settings: IB35 100 nM, ATP Km app
Source text: as §1

[3] = molecular target: PIK3CD/PIK3R1 (p110 delta/p85 alpha) (Homo sapiens (Human), UniProt O00329); test: IB35 kinases profiling at 100 nM (Adapta); settings: IB35 100 nM, ATP Km app
Source text: as §1

CDK9/cyclin T1 = CDK9/cyclin T1 (Homo sapiens (Human), UniProt P50750); test: IB35 kinases profiling at 100 nM (Adapta); settings: IB35 100 nM, ATP Km app
Source text: as §1

CHUK (IKK alpha), sequence (O15111 whole entry): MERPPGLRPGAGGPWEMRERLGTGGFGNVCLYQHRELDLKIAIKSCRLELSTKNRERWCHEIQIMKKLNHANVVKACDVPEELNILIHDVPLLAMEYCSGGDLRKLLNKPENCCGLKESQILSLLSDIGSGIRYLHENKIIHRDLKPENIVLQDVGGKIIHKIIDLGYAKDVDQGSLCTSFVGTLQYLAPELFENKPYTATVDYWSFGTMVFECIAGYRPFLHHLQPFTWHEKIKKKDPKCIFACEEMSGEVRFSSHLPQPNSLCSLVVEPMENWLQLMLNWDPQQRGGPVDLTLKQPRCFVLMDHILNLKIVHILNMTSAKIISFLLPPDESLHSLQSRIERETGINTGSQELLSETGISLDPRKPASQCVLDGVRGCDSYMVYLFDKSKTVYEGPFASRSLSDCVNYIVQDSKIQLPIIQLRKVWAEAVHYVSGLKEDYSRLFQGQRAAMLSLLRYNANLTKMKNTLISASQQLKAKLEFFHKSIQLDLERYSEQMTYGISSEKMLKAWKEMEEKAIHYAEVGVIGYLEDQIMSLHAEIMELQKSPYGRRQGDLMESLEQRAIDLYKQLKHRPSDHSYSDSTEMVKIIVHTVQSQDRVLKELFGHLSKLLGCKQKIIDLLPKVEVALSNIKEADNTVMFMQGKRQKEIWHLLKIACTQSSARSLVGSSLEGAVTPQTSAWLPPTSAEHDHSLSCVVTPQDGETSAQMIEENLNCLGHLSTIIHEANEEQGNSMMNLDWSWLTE
CDK7/cyclin H/MNAT1, sequence (P50613 whole entry): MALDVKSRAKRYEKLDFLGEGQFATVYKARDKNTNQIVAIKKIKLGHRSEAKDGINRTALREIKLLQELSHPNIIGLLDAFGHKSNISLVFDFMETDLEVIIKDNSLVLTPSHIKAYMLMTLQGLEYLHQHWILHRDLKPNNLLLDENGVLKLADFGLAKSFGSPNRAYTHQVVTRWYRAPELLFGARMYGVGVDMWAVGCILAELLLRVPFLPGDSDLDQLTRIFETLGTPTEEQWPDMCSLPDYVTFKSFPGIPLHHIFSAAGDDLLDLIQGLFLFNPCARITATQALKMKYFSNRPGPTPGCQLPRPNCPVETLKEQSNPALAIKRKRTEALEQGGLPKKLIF
CDK7/cyclin H/MNAT1, sequence (P51946 whole entry partner): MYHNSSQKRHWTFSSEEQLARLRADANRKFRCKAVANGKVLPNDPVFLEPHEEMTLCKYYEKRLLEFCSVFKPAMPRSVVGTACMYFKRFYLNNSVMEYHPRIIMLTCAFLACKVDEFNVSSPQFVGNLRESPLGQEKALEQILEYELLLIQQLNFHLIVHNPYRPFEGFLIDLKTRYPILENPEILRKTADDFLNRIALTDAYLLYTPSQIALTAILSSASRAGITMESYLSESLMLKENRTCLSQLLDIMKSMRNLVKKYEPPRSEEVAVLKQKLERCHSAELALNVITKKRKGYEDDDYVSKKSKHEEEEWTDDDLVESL
CDK7/cyclin H/MNAT1, sequence (P51948 whole entry partner): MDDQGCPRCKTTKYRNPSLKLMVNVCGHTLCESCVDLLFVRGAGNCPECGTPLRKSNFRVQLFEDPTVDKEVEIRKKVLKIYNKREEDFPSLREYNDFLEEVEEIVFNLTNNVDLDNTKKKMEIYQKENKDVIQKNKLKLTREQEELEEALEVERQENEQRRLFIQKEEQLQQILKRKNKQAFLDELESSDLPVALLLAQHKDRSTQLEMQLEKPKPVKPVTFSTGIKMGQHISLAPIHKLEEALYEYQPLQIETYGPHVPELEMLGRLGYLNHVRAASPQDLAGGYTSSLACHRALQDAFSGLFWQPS
CDC42 BPA (MRCKA), sequence (Q5VT25 whole entry): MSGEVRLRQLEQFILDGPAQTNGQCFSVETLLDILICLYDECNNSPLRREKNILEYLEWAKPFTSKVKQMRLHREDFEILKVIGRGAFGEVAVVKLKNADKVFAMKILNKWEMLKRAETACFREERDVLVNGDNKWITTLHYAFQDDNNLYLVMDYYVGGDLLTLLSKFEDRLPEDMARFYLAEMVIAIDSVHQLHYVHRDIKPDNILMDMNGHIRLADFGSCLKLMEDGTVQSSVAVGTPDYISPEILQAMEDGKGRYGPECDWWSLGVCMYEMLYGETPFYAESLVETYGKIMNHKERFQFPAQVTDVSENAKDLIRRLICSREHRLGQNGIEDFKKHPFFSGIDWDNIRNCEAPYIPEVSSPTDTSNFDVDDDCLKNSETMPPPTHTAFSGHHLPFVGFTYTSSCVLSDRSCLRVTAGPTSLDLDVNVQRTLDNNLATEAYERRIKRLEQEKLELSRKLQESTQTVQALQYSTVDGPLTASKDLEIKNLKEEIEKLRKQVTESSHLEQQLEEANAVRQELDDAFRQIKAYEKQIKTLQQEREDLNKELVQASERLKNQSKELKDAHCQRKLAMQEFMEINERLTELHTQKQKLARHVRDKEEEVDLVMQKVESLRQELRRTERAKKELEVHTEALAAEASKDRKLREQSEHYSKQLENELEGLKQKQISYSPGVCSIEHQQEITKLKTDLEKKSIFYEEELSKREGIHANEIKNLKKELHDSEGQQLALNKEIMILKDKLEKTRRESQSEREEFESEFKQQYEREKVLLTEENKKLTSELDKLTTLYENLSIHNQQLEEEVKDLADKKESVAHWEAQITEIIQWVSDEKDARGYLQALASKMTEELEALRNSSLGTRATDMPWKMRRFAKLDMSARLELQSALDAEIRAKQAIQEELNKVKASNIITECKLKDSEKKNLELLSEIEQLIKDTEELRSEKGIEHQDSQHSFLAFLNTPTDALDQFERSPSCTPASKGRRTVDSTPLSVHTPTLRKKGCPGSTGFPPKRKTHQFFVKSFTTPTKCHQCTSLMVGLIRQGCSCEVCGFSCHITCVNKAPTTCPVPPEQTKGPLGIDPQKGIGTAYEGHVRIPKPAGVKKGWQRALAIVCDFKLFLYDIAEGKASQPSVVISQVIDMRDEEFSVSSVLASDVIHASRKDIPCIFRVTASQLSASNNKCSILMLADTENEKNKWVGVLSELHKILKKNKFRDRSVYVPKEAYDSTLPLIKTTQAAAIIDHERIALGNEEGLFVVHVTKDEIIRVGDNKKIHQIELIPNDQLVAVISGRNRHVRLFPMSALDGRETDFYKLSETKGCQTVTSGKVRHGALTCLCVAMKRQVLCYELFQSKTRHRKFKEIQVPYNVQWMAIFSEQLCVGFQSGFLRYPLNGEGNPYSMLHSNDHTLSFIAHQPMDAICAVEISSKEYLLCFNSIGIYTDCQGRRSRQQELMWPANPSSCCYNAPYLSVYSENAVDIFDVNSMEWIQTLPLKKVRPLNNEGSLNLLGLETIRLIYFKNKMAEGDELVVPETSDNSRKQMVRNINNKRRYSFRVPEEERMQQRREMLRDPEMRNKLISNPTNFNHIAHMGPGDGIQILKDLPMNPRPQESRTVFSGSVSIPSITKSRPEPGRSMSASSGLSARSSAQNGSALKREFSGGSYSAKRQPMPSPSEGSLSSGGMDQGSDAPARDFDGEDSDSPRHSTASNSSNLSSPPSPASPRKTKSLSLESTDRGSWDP
PI4KB (PI4K beta), sequence (Q9UBF8 whole entry): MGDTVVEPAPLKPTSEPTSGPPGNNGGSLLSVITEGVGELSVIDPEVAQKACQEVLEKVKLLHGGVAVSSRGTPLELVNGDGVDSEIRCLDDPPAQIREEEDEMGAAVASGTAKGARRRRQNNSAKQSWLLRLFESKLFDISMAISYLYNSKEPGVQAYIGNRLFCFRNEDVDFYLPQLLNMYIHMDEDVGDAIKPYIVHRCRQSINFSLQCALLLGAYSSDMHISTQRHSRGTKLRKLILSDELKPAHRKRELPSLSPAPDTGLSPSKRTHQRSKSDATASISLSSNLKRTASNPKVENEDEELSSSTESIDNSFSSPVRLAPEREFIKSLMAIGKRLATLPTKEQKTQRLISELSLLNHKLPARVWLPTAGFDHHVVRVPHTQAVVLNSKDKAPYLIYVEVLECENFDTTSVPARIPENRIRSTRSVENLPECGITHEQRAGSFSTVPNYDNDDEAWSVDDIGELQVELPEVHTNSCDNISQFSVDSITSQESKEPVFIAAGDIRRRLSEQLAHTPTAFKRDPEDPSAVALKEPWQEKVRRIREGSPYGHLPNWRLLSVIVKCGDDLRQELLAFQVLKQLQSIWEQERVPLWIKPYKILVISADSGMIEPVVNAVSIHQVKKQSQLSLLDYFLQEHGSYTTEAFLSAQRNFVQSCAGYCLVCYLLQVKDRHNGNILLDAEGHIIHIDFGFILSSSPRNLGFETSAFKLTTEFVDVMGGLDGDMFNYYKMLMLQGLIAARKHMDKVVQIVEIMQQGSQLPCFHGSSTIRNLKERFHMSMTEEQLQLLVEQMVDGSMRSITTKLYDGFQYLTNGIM
MAPK9 (JNK2), sequence (P45984 whole entry, species assumed): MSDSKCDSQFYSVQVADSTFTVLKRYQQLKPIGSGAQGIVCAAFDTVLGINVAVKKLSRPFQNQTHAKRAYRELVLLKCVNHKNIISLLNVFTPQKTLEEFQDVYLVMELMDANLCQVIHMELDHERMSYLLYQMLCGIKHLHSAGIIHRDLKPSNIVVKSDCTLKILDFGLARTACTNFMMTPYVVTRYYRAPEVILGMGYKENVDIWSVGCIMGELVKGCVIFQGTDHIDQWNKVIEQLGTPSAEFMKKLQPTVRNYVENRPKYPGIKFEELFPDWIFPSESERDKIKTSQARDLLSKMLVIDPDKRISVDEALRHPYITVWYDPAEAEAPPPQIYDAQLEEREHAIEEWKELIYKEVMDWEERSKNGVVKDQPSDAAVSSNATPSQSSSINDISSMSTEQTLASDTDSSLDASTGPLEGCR

## O=C(CNC(=O)c1cccn(Cc2ccc(F)c(F)c2)c1=O)Nc1ccc2c(c1)/C(=C/c1cnc[nH]1)C(=O)N2 [IB35, (Z)—N-(2-((3-((1H-imidazol-5-yl)methylene)-2-oxoindolin-5-yl)amino)-2-oxoethyl)-1-(3,4-difluorobenzyl)-2-oxo-1,2-dihydro pyridine-3-carboxamide]
CDC42 BPA (MRCKA); read-out: % Inhibition 1
  inhibition at 0.1 µM: -1%
CDC42 BPA (MRCKA); read-out: % Inhibition 2
  inhibition at 0.1 µM: -6%
CDC42 BPA (MRCKA); read-out: % Inhibition Avg
  inhibition at 0.1 µM: -3%
CDK5/p35; read-out: % Inhibition 1
  inhibition at 0.1 µM: -2%
CDK5/p35; read-out: % Inhibition 2
  inhibition at 0.1 µM: 6%
CDK5/p35; read-out: % Inhibition Avg
  inhibition at 0.1 µM: 2%
SRC; read-out: % Inhibition 1
  inhibition at 0.1 µM: 8%
SRC; read-out: % Inhibition 2
  inhibition at 0.1 µM: 6%
SRC; read-out: % Inhibition Avg
  inhibition at 0.1 µM: 7%
CAMK2A (CaMKII alpha); read-out: % Inhibition 1
  inhibition at 0.1 µM: -1%
CAMK2A (CaMKII alpha); read-out: % Inhibition 2
  inhibition at 0.1 µM: 2%
CAMK2A (CaMKII alpha); read-out: % Inhibition Avg
  inhibition at 0.1 µM: 0%
GRK5; read-out: % Inhibition 1
  inhibition at 0.1 µM: -7%
GRK5; read-out: % Inhibition 2
  inhibition at 0.1 µM: 0%
GRK5; read-out: % Inhibition Avg
  inhibition at 0.1 µM: -4%
[1]; read-out: % Inhibition 1
  inhibition at 0.1 µM: 2%
[1]; read-out: % Inhibition 2
  inhibition at 0.1 µM: 4%
[1]; read-out: % Inhibition Avg
  inhibition at 0.1 µM: 3%
MAPK9 (JNK2); read-out: % Inhibition 1
  inhibition at 0.1 µM: 3%
MAPK9 (JNK2); read-out: % Inhibition 2
  inhibition at 0.1 µM: -5%
MAPK9 (JNK2); read-out: % Inhibition Avg
  inhibition at 0.1 µM: -1%
RAF1 (cRAF) Y340D Y341D; read-out: % Inhibition 1
  inhibition at 0.1 µM: 10%
RAF1 (cRAF) Y340D Y341D; read-out: % Inhibition 2
  inhibition at 0.1 µM: 11%
RAF1 (cRAF) Y340D Y341D; read-out: % Inhibition Avg
  inhibition at 0.1 µM: 10%
CHEK2 (CHK2); read-out: % Inhibition 1
  inhibition at 0.1 µM: 1%
CHEK2 (CHK2); read-out: % Inhibition 2
  inhibition at 0.1 µM: 8%
CHEK2 (CHK2); read-out: % Inhibition Avg
  inhibition at 0.1 µM: 4%
ROCK1; read-out: % Inhibition 1
  inhibition at 0.1 µM: -9%
ROCK1; read-out: % Inhibition 2
  inhibition at 0.1 µM: -6%
ROCK1; read-out: % Inhibition Avg
  inhibition at 0.1 µM: -7%
PRKCD (PKC delta); read-out: % Inhibition 1
  inhibition at 0.1 µM: -2%
PRKCD (PKC delta); read-out: % Inhibition 2
  inhibition at 0.1 µM: -12%
PRKCD (PKC delta); read-out: % Inhibition Avg
  inhibition at 0.1 µM: -7%
MAPK8 (JNK1); read-out: % Inhibition 1
  inhibition at 0.1 µM: 4%
MAPK8 (JNK1); read-out: % Inhibition 2
  inhibition at 0.1 µM: 21%
MAPK8 (JNK1); read-out: % Inhibition Avg
  inhibition at 0.1 µM: 12%
PAK6; read-out: % Inhibition 1
  inhibition at 0.1 µM: 1%
PAK6; read-out: % Inhibition 2
  inhibition at 0.1 µM: -9%
PAK6; read-out: % Inhibition Avg
  inhibition at 0.1 µM: -4%
AKT1 (PKB alpha); read-out: % Inhibition 1
  inhibition at 0.1 µM: -6%
AKT1 (PKB alpha); read-out: % Inhibition 2
  inhibition at 0.1 µM: -9%
AKT1 (PKB alpha); read-out: % Inhibition Avg
  inhibition at 0.1 µM: -8%
IRAK4; read-out: % Inhibition 1
  inhibition at 0.1 µM: 3%
IRAK4; read-out: % Inhibition 2
  inhibition at 0.1 µM: -14%
IRAK4; read-out: % Inhibition Avg
  inhibition at 0.1 µM: -6%
CDK7/cyclin H/MNAT1; read-out: % Inhibition 1
  inhibition at 0.1 µM: 2%
CDK7/cyclin H/MNAT1; read-out: % Inhibition 2
  inhibition at 0.1 µM: -1%
CDK7/cyclin H/MNAT1; read-out: % Inhibition Avg
  inhibition at 0.1 µM: 1%
PIK3CG (p110 gamma); read-out: % Inhibition 1
  inhibition at 0.1 µM: 6%
PIK3CG (p110 gamma); read-out: % Inhibition 2
  inhibition at 0.1 µM: -1%
PIK3CG (p110 gamma); read-out: % Inhibition Avg
  inhibition at 0.1 µM: 2%
[2]; read-out: % Inhibition 1
  inhibition at 0.1 µM: 16%
[2]; read-out: % Inhibition 2
  inhibition at 0.1 µM: 24%
[2]; read-out: % Inhibition Avg
  inhibition at 0.1 µM: 20%
PI4KB (PI4K beta); read-out: % Inhibition 1
  inhibition at 0.1 µM: -3%
PI4KB (PI4K beta); read-out: % Inhibition 2
  inhibition at 0.1 µM: 12%
PI4KB (PI4K beta); read-out: % Inhibition Avg
  inhibition at 0.1 µM: 4%
CHUK (IKK alpha); read-out: % Inhibition 1
  inhibition at 0.1 µM: -2%
CHUK (IKK alpha); read-out: % Inhibition 2
  inhibition at 0.1 µM: 7%
CHUK (IKK alpha); read-out: % Inhibition Avg
  inhibition at 0.1 µM: 3%
[3]; read-out: % Inhibition 1
  inhibition at 0.1 µM: 13%
[3]; read-out: % Inhibition 2
  inhibition at 0.1 µM: 21%
[3]; read-out: % Inhibition Avg
  inhibition at 0.1 µM: 17%
CDK9/cyclin T1; read-out: % Inhibition 1
  inhibition at 0.1 µM: 7%
CDK9/cyclin T1; read-out: % Inhibition 2
  inhibition at 0.1 µM: 5%
CDK9/cyclin T1; read-out: % Inhibition Avg
  inhibition at 0.1 µM: 6%
